Read-outs that look alike come from different tables or passages of the source.
Test system: HBsAg
Test: HBsAg assay: inhibition of HBsAg in HepG2.2.15 cells (chemiluminescence immunoassay of supernatant)
Assay type: cell-based, hepatitis B virus
Conditions: HBsAg in supernatant at day 6 after exposure to compound, 0.5% DMSO
Procedure, shortened: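 HepG2.2.15 cells treated with serially diluted compounds (0.5% DMSO), medium and compound refreshed after 2–3 days, supernatant harvested at day 6. Secreted HBsAg measured by chemiluminescence immunoassay; EC50 from dose-response curves, with parallel CellTiter-Glo viability at 5,000 cells/well.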

[1] = read-out: sAg EC50, HepG2.2.15 cells
[2] = Hepatitis B virus, HepG2.2.15, 144 h, read-out: sAg EC50, HepG2.2.15 cells

Structure (SMILES)	EC50 [1]	EC50 [2]
COCCCOc1cc(C2CC2c2cnc(-c3ncccn3)nc2)cc(F)c1F (single isomer, unassigned) [Example 130, trans-5-(2-(3,4-Difluoro-5-(3-methoxypropoxy)phenyl)cyclopropyl)-2,2′-bipyrimidine]	260 nM	
c1cnc(-c2ncc([C@@H]3C[C@H]3c3cccc4ncccc34)cn2)nc1 (relative stereo) [Example 171, trans-5-(2-([2,2′-Bipyrimidin]-5-yl)cyclopropyl)quinoline]		380 nM
Fc1cc(C2CC2c2cnc(-c3ncccn3)nc2)cc(N2CC(c3ccccc3)C2)c1F (single isomer, unassigned) [Example 256, trans-5-(2-(3,4-Difluoro-5-(3-phenylazetidin-1-yl)phenyl)cyclopropyl)-2,2′-bipyrimidine]	28 nM	
Fc1cc(C2CC2c2cnc(-c3ncccn3)nc2)cc(F)c1F (single isomer, unassigned) [Example 162, trans-5-(2-(3,4,5-Trifluorophenyl)cyclopropyl)-2,2′-bipyrimidine]	160 nM	
COc1cc(F)ccc1C1CC1c1cnc(-c2ncccn2)nc1 (single isomer, unassigned) [Example 9, trans-5-(2-(4-Fluoro-2-methoxyphenyl)cyclopropyl)-2,2′-bipyrimidine]	85 nM	
CO[C@H]1CCN(c2cc(C3CC3c3cnc(-c4ncccn4)nc3)cc(F)c2F)C1 (single isomer, unassigned) [Example 102]	29 nM	
COCCCn1cnc2cc([C@@H]3C[C@H]3c3cnc(-c4ncccn4)nc3)cc(F)c21 (relative stereo) [Example 273, trans-5-(2-([2,2′-Bipyrimidin]-5-yl)cyclopropyl)-7-fluoro-1-(3-methoxypropyl)-1H-benzo[d]imidazole]		43 nM
Cc1c(C2CC2c2cnc(-c3ncccn3)nc2)ccc(Cl)c1OCC1CC1 (single isomer, unassigned) [Example 61, trans-5-(2-(4-Chloro-3-(cyclopropylmethoxy)-2-methylphenyl)cyclopropyl)-2,2′-bipyrimidine]	430 nM	
CN(C)C(=O)c1cc(C2CC2c2cnc(-c3ncccn3)nc2)ccc1Cl (single isomer, unassigned) [Example 204, trans-5-(2-([2,2′-Bipyrimidin]-5-yl)cyclopropyl)-2-chloro-N,N-dimethylbenzamide]	4000 nM	
COc1cc([C@@H]2C[C@H]2c2cnc(-c3ncccn3)nc2)ccc1OC(F)(F)F (relative stereo) [Example 152, trans-5-(2-(3-Methoxy-4-(trifluoromethoxy)phenyl)cyclopropyl)-2,2′-bipyrimidine]		700 nM
COC1CN(c2cc(C3CC3c3cnc(-c4ncccn4)nc3)ccc2F)C1 (single isomer, unassigned) [Example 48, trans-5-(2-(4-Fluoro-3-(3-methoxyazetidin-1-yl)phenyl)cyclopropyl)-2,2′-bipyrimidine]	32 nM	
CN1CCN(c2cc(C3CC3c3cnc(-c4ncccn4)nc3)ccc2F)CC1 (single isomer, unassigned) [Example 188, trans-5-(2-(4-Fluoro-3-(4-methylpiperazin-1-yl)phenyl)cyclopropyl)-2,2′-bipyrimidine]	4000 nM	
CO[C@H]1CCN(c2cc(C3CC3c3cnc(-c4ncccn4)nc3)cc(Cl)c2F)C1 (single isomer, unassigned) [Example 117]	11 nM	
Fc1cc(C2CC2c2cnc(-c3ncccn3)nc2)cc(O[C@@H]2CCOC2)c1F (single isomer, unassigned) [Example 248]	1000 nM	
COCCOc1cc(F)c(Cl)cc1C1CC1c1cnc(-c2ncccn2)nc1 (single isomer, unassigned) [Example 157, trans-5-(2-(5-Chloro-4-fluoro-2-(2-methoxyethoxy)phenyl)cyclopropyl)-2,2′-bipyrimidine]	49000 nM	
COc1cc(C2CC2c2cnc(-c3ncccn3)nc2)cc(F)c1F (single isomer, unassigned) [Example 85, trans-5-(2-(3,4-Difluoro-5-methoxyphenyl)cyclopropyl)-2,2′-bipyrimidine]	29 nM	
COCCCOc1cc(F)c(Cl)cc1C1CC1c1cnc(-c2ncccn2)nc1 (single isomer, unassigned) [Example 154, trans-5-(2-(5-Chloro-4-fluoro-2-(3-methoxypropoxy)phenyl)cyclopropyl)-2,2′-bipyrimidine]	300 nM	
Cc1cnn(-c2cc([C@@H]3C[C@H]3c3cnc(-c4ncccn4)nc3)cc(F)c2F)c1 (relative stereo) [Example 232, trans-5-(2-(3,4-Difluoro-5-(4-methyl-1H-pyrazol-1-yl)phenyl)cyclopropyl)-2,2′-bipyrimidine]		28 nM
COc1cc(C2CC2c2cnc(-c3ncccn3)nc2)cc(F)c1Cl (single isomer, unassigned) [Example 46, trans-5-(2-(4-Chloro-3-fluoro-5-methoxyphenyl)cyclopropyl)-2,2′-bipyrimidine]	35 nM	

Structure (SMILES)	EC50 [1]	EC50 [2]
COc1cc(C2CC2c2cnc(-c3ncccn3)nc2)cc(Cl)c1F (single isomer, unassigned) [Example 148, trans-5-(2-(3-Chloro-4-fluoro-5-methoxyphenyl)cyclopropyl)-2,2′-bipyrimidine]	1000 nM	
Fc1ccc(C2CC2c2cnc(-c3ncccn3)nc2)cc1OC(F)(F)F (single isomer, unassigned) [Example 39, trans-5-(2-(4-Fluoro-3-(trifluoromethoxy)phenyl)cyclopropyl)-2,2′-bipyrimidine]	2000 nM	
O[C@@H]1CCN(c2cc(C3CC3c3cnc(-c4ncccn4)nc3)cc(Cl)c2F)C1 (single isomer, unassigned) [Example 126]		120 nM
COc1cc([C@@H]2C[C@H]2c2cnc(-c3ccccn3)nc2)cc(OC)c1OC (relative stereo) [Example 176, trans-2-(Pyridin-2-yl)-5-(2-(3,4,5-trimethoxyphenyl)cyclopropyl)pyrimidine]		2000 nM
COc1cc(C2CC2c2cnc(-c3ncccn3)nc2)c(Cl)cc1Cl (single isomer, unassigned) [Example 88, trans-5-(2-(2,4-Dichloro-5-methoxyphenyl)cyclopropyl)-2,2′-bipyrimidine]	84 nM	
COc1cc(C2CC2c2cnc(-c3ncccn3)nc2OC)ccc1F (single isomer, unassigned) [Example 80, trans-5-(2-(4-Fluoro-3-methoxyphenyl)cyclopropyl)-4-methoxy-2,2′-bipyrimidine]	100 nM	
Fc1ccc(C2CC2c2ccnc(-c3ncccn3)n2)cc1F (single isomer, unassigned) [Example 5, trans-4-(2-(3,4-Difluorophenyl)cyclopropyl)-2,2′-bipyrimidine]		5000 nM
COc1c(Cl)ccc(C2CC2c2cnc(-c3ncccn3)nc2)c1OC (single isomer, unassigned) [Example 114, trans-5-(2-(4-Chloro-2,3-dimethoxyphenyl)cyclopropyl)-2,2′-bipyrimidine]	3000 nM	
O[C@@H]1CN(c2cc(C3CC3c3cnc(-c4ncccn4)nc3)cc(F)c2F)C[C@H]1O (relative stereo) [Example 239, trans-(3R,4R)-1-(5-(2-([2,2′-Bipyrimidin]-5-yl)cyclopropyl)-2,3-difluorophenyl)pyrrolidine-3,4-diol]		110 nM
COc1cnn(-c2cc(C3CC3c3cnc(-c4ncccn4)nc3)cc(F)c2F)c1 (single isomer, unassigned) [Example 252, trans-5-(2-(3,4-Difluoro-5-(4-methoxy-1H-pyrazol-1-yl)phenyl)cyclopropyl)-2,2′-bipyrimidine]	14 nM	
COC1CN(c2cc([C@@H]3C[C@H]3c3cnc(-c4ncccn4)nc3)cc(F)c2F)C1 (single isomer, unassigned) [Example 122, trans-5-(2-(3,4-difluoro-5-(3-methoxyazetidin-1-yl)phenyl)cyclopropyl)-2,2′-bipyrimidine]	61 nM	
COc1cc(C2CC2c2cnc(-c3ncccn3)nc2C(C)C)ccc1F (single isomer, unassigned) [Example 74, trans-5-(2-(4-Fluoro-3-methoxyphenyl)cyclopropyl)-4-isopropyl-2,2′-bipyrimidine]	10000 nM	
CN(C)c1cc(C2CC2c2cnc(-c3ncccn3)nc2)ccc1F (single isomer, unassigned) [Example 64, trans-5-(2-([2,2′-Bipyrimidin]-5-yl)cyclopropyl)-2-fluoro-N,N-dimethylaniline]	3000 nM	
CO[C@H]1CCN(c2cc(C3CC3c3cnc(-c4ncccn4)nc3)ccc2F)C1 (single isomer, unassigned) [Example 68]	85 nM	
O[C@H]1CCN(c2cc(C3CC3c3cnc(-c4ncccn4)nc3)ccc2F)C1 (single isomer, unassigned) [Example 65]	580 nM	
O[C@H]1CCN(c2cc(C3CC3c3cnc(-c4ncccn4)nc3)cc(Cl)c2F)C1 (single isomer, unassigned) [Example 121]	11 nM	
COc1cc(C2CC2c2cnc(-c3ncccn3)nc2)cc(Cl)c1Cl (single isomer, unassigned) [Example 60, trans-5-(2-(3,4-Dichloro-5-methoxyphenyl)cyclopropyl)-2,2′-bipyrimidine]	250 nM	
COc1c(Cl)ccc(C2CC2c2cnc(-c3ncccn3)nc2)c1OC (single isomer, unassigned) [Example 115, trans-5-(2-(4-Chloro-2,3-dimethoxyphenyl)cyclopropyl)-2,2′-bipyrimidine]	320 nM	
Fc1ccc(C2CC2c2cnc(-c3ncccn3)nc2)cc1F (single isomer, unassigned) [Example 14, trans-5-(2-(3,4-Difluorophenyl)cyclopropyl)-2,2′-bipyrimidine]	1000 nM	

Source: patent publication US20230083973A1, “SUBSTITUTED CYCLOPROPYL-2,2'-BIP[…], ANALOGUES THEREOF, AND METHODS USING SAME” (priority 2019, published 2023)
